# Source: patent US5164406A, “Method for enhancing transdermal penetration and compositions useful therein” (priority 1989, dated 1992)
# Where a name gives a salt, the structure may show the parent alone. Read-outs that look alike come from different tables or passages of the source.
# Columns and labels:
# [1] = Procedure: Polyoxyethylene stearyl ethers, 3 wt. %
# Polyoxypropylene fatty alcohol ethers, 3 wt. %
# Deionized water, 94 wt. %
# Further, in all cases, unless otherwise noted, the tests were carried out at 37° C. and results were compared to penetration data for the same material in the oil/water emulsion base. Moreover, all percentages of composition components recited are, unless otherwise indicated, weight percent (wt. %) and are based upon the total weight of the composition.
# The test method is carried out as follows:
# A. Prior to testing, rats are routinely acclimated to the laboratory environment for seven days and gross observations are made to ensure good health of the animals to be tested.
# B. Female Sprague Dawley rats (190-240 gm) are selected for testing and identified by cage label and ear tag number.
# C. Diffusion Cell Preparation.
# 1. An O-ring is placed on a standard Franz Diffusion Cell. A stir bar is placed in the receptor compartment. Each cell is filled with approximately 4.5 ml sterile physiologic saline (receptor compartments are calibrated to contain 5.0 ml).
# 2. The jacketed diffusion cells are maintained at 37° C.±1° (or alternatively desired temperature) using an external water bath and a circulating pump.
# D. Skin Section Preparation and Mounting
# 1. Test animals are sacrificed by intraperitoneal injection of 0.4 ml/100 gm. body weight sodium pentobarital (1 gm/ml).
# 2. The backs are lightly shaved using electric hair clippers.
# 3. A section of skin, measuring approximately 8 cm long by 7 cm wide, is removed from the back of each rat using a No. 20 scalpel assuring that the skin section is free from subcutaneous fat.
# 4. A piece of the skin section is mounted over an O-ring on the diffusion cell, epidermal side facing up. The donor compartment is placed on top of the skin section making a complete seal over the skin. A clamp is used to secure the skin section in place.
# 5. Air bubbles that collect under the skin are removed by inverting the diffusion cell and tapping it gently. The receptor compartment is filled with sterile physiologic saline to 5.0 ml.
# E. Application of Test Materials
# 1. Test and control materials are applied to the skin using s syringe or spatula. The material is spread evenly and completely over the exposed skin surface using the tip of the syringe/spatula.
# 1. An HPLC carousel is loaded with microvials. Springs and inserts are placed into the microvials.
# 2. Receptor compartments are sampled at desired time intervals using a microliter (μl) syringe. The sample (approximately 160 μl) is placed into the insert. The microvial is sealed with a plastic cap.
# 3. When multiple sampling is required, the receptor compartment is replenished with sterile physiologic saline to maintain a 5.0 ml volume.
# Samples are analyzed using standard analytical techniques. The presence of test material in the samples is indicative of transdermal penetration.
# [2] = Pig skin (in vitro) transdermal penetration; assay type: in vitro ADME, Yucatan miniature pig; conditions: 0.5% IMI in saturated aqueous TPL solution
# Procedure: The test procedure is as described for rat skin studies with the exception that excised pig skin samples from Yucatan miniature pigs are utilized.
# To address this issue, in vitro skin penetration of tripelennamine (TPL) in 2 saturated aqueous solutions, was measured using pig skin in accordance with the Pig Skin (in vitro) procedure earlier outlined. One solution contained 0.5% IMI. The other solution served as an aqueous control (buffered with NaOH to the same pH as the IMI containing solution).
# Since all skin sections are dermatomed to 380 microns, h is a constant. In each composition of Table 5, the vehicle was saturated with the pharmacologic agent. Therefore, the "leaving tendency", or the thermodynamic activity of the pharmacologic agent in the vehicle, remained unchanged (K is the same for both compositions). this means that D must increase in order to explain the 3-fold increase in transdermal penetration. This is indicative of a true enhancement effect of topically applied IMI. The results of Table 5, substantiate that IMI acts as a true skin penetration enhancer. […] This may be one reason why use of a transdermal penetration enhancing amount of a selected imidazole or imidazole derivative of the present invention, in conjunction with a pharmacologically active agent whose transdermal penetration is capable of being enhanced, affords the advantageous enhancement of penetration achieved by the present invention.
# [3] = 2% TPL in B with 0.5% imidazole derivative, Table 2, average of multiple determinations
# [4] = multiple of average control determination of the same study, 2% TPL in B with 0.5% imidazole derivative, Table 2
compound,measurement,setting,value
1-cyanoethyl-2-phenylimidazole [1-CYANOETHYL-2-PHENYL IMIDAZOLE],24 hour penetration of tripelennamine HCl (total micrograms base),[1]; [3],310 micrograms base
same,Increase in penetration relative to control,[1]; [4],2.6
"Cc1nccn1C [1-2 DIMETHYL IMIDAZOLE, 1,2-dimethylimidazole]",24 hour penetration of tripelennamine HCl (total micrograms base),[1],374 micrograms base
same,Increase in penetration relative to control,[1],4.3
"CC(C)=CCCC(C)=CCn1ccnc1 [1-(3,7-dimethyl-2,6-octadienyl) imidazole]",24 hour penetration of tripelennamine HCl (total micrograms base),[1],479 micrograms base
same,Increase in penetration relative to control,[1],2.6
c1ccc(Cn2ccnc2)cc1 [1-BENZYL IMIDAZOLE],24 hour penetration of tripelennamine HCl (total micrograms base),[1]; [3],277 micrograms base
same,Increase in penetration relative to control,[1]; [4],1.1
Cc1nccn1Cc1ccccc1 [1-BENZYL-2-METHYL IMIDAZOLE],24 hour penetration of tripelennamine HCl (total micrograms base),[1],463 micrograms base
same,Increase in penetration relative to control,[1],1.8
CCCCn1ccnc1 [1-BUTYL IMIDAZOLE],24 hour penetration of tripelennamine HCl (total micrograms base),[1],497 micrograms base
same,Increase in penetration relative to control,[1],2.1
CCCCCCCCCCn1ccnc1 [1-DECYL IMIDAZOLE],24 hour penetration of tripelennamine HCl (total micrograms base),[1],446 micrograms base
same,Increase in penetration relative to control,[1],3.7
CCCCCCCCCCCCn1ccnc1 [1-DODECYL IMIDAZOLE],24 hour penetration of tripelennamine HCl (total micrograms base),[1],479 micrograms base
same,Increase in penetration relative to control,[1],4.0
CC(C)n1ccnc1 [1-ISOPROPYL IMIDAZOLE],24 hour penetration of tripelennamine HCl (total micrograms base),[1],527 micrograms base
same,Increase in penetration relative to control,[1],2.9
Cn1ccnc1 [1-METHYL IMIDAZOLE],24 hour penetration of tripelennamine HCl (total micrograms base),[1]; [3],728 micrograms base
same,Increase in penetration relative to control,[1]; [4],3.0
c1ccc(-n2ccnc2)cc1 [1-PHENYL IMIDAZOLE],24 hour penetration of tripelennamine HCl (total micrograms base),[1]; [3],450 micrograms base
same,Increase in penetration relative to control,[1]; [4],1.8
Cc1ncc[nH]1 [2-METHYL IMIDAZOLE],24 hour penetration of tripelennamine HCl (total micrograms base),[1],615 micrograms base
same,Increase in penetration relative to control,[1],2.6
c1ccc(-c2ncc[nH]2)cc1 [2-PHENYL IMIDAZOLE],24 hour penetration of tripelennamine HCl (total micrograms base),[1]; [3],435 micrograms base
same,Increase in penetration relative to control,[1]; [4],1.7
CCCc1ncc[nH]1 [2-PROPYL IMIDAZOLE],24 hour penetration of tripelennamine HCl (total micrograms base),[1],554 micrograms base
same,Increase in penetration relative to control,[1],2.2
CCCCCCCCCCCCCCCCCc1ncc[nH]1 [2-[…]],24 hour penetration of tripelennamine HCl (total micrograms base),[1]; [3],358 micrograms base
same,Increase in penetration relative to control,[1]; [4],1.5
Cc1nc[nH]c1CO [4-(HYDROXYMETHYL) 5-METHYL IMIDAZOLE],24 hour penetration of tripelennamine HCl (total micrograms base),[1],149 micrograms base
same,Increase in penetration relative to control,[1],1.2
NNC(=O)c1c[nH]cn1 [4-CARBOXYLIC ACID HYDRAZIDE IMIDAZOLE],24 hour penetration of tripelennamine HCl (total micrograms base),[1]; [3],143 micrograms base
same,Increase in penetration relative to control,[1]; [4],1.7
"OCc1c[nH]cn1 [4-HYD[…], 4-hydroxymethyl imidazole]",24 hour penetration of tripelennamine HCl (total micrograms base),[1]; [3],224 micrograms base
same,Increase in penetration relative to control,[1]; [4],3.2
Cc1c[nH]cn1 [4-METHYL IMIDAZOLE],24 hour penetration of tripelennamine HCl (total micrograms base),[1]; [3],477 micrograms base
same,Increase in penetration relative to control,[1]; [4],3.9
O=[N+]([O-])c1c[nH]cn1 [4-NITRO IMIDAZOLE],24 hour penetration of tripelennamine HCl (total micrograms base),[1],142 micrograms base
same,Increase in penetration relative to control,[1],1.2
c1ccc(-c2c[nH]cn2)cc1 [4-PHENYL IMIDAZOLE],24 hour penetration of tripelennamine HCl (total micrograms base),[1]; [3],368 micrograms base
same,Increase in penetration relative to control,[1]; [4],3.0
"CC(=O)Oc1ccccc1C(=O)O [ASA, ASPIRIN, reference compound]",24 hour penetration (total micrograms base),[1],87.5 micrograms base
"N[C@H](Cc1c[nH]cn1)C(=O)O [D-HISTIDINE, D-histidine]",24 hour penetration of tripelennamine HCl (total micrograms base),[1],197 micrograms base
same,Increase in penetration relative to control,[1],2.8
"COc1ccc2c(c1)[C@]13CCCC[C@@H]1[C@H](C2)N(C)CC3 [DEX, DEXTRO[…], HBR, reference compound]",24 hour penetration (total micrograms base),"[1]; B + 2% DEX + 0.5% IPM + 0.5% IMI, Table 3 Study VIII",360 micrograms base
same,24 hour penetration (total micrograms base),"[1]; control: 2% of the drug alone in B, Table 3",124 micrograms base
same,Increase in penetration relative to control,"[1]; multiple of average control determination, B + 2% DEX + 0.5% IPM + 0.5% IMI, Table 3 Study VIII",2.9
"NS(=O)(=O)c1cc2c(cc1Cl)NCNS2(=O)=O [HCTZ, HYDROCHLOROTHIAZIDE, reference compound]",24 hour penetration (total micrograms base),[1],1.7 micrograms base
same,Imidazole enhanced the transdermal penetration (fold),"[1]; 5% HCTZ with 1% imidazole, Table 3 Study IX",five
"CC(C)Cc1ccc(C(C)C(=O)O)cc1 (centres unmarked) [IBU, IBUPROFEN, reference compound]",24 hour penetration (total micrograms base),"[1]; B + 5% drug + 0.5% imidazole (IMI), Table 3",378.0 micrograms base
same,24 hour penetration (total micrograms base),"[1]; control: 5% of the drug alone in B, Table 3",181.5 micrograms base
same,Increase in penetration relative to control,"[1]; multiple of average control determination, B + 5% drug + 0.5% IMI, Table 3",2.1
"c1c[nH]cn1 [IMIDAZOLE, imidazole]",Increase in skin permeation of TPL,[2],3 fold
same,24 hour penetration of tripelennamine HCl (total micrograms base),[1]; 2% TPL in B + 0.01% imidazole,208 micrograms base
same,24 hour penetration of tripelennamine HCl (total micrograms base),[1]; 2% TPL in B + 0.1% imidazole,413 micrograms base
same,24 hour penetration of tripelennamine HCl (total micrograms base),[1]; 2% TPL in B + 1.0% imidazole,662 micrograms base
same,TPL penetration increased as compared to the control,"[1]; 2% TPL in B, imidazole up to 1.0%, Table 1",approximately 340%
same,Increase in penetration relative to control,"[1]; multiple of average control determination, 2% TPL in B + 0.01% imidazole",1.1
same,Increase in penetration relative to control,"[1]; multiple of average control determination, 2% TPL in B + 0.1% imidazole",2.1
same,Increase in penetration relative to control,"[1]; multiple of average control determination, 2% TPL in B + 1.0% imidazole",3.4
"CC(C)NCC(O)c1cc(O)cc(O)c1 (centres unmarked) [MET, METAPROTERENOL SULFATE, reference compound]",24 hour penetration (total micrograms base),[1],47.6 micrograms base
"Cn1cc[nH]c1=S [METHIMIDAZOLE, methimazole, reference compound]",24 hour penetration of tripelennamine HCl (total micrograms base),[1],301 micrograms base
same,Increase in penetration relative to control,[1],3.5
"NCCCn1ccnc1 [N-(3-AMINOPROPYL) IMIDAZOLE, N-(3-aminopropyl)imidazole]",24 hour penetration of tripelennamine HCl (total micrograms base),[1],457 micrograms base
same,Increase in penetration relative to control,[1],2.5
CCC(=O)n1ccnc1 [N-PROPIONYL IMIDAZOLE],24 hour penetration of tripelennamine HCl (total micrograms base),[1],453 micrograms base
same,Increase in penetration relative to control,[1],2.5
O=C(/C=C/c1ccccc1)n1ccnc1 [N-TRANS-CINNAMOYL],24 hour penetration of tripelennamine HCl (total micrograms base),[1],153 micrograms base
same,Increase in penetration relative to control,[1],1.8
"c1ccc2c(CC3=NCCN3)cccc2c1 [NAP, NAPHAZOLINE HCL, reference compound]",24 hour penetration (total micrograms base),[1],161 micrograms base
same,Penetration enhanced by imidazole,[1],480%
"CNC[C@H](O)c1cccc(O)c1 [PHE, PHENYLEPHRINE HCL, reference compound]",24 hour penetration (total micrograms base),[1],266 micrograms base
"Cc1ccc(/C(=C\CN2CCCC2)c2ccccn2)cc1 [TRP, TRIPROLIDINE HCL, reference compound]",24 hour penetration (total micrograms base),[1],180 micrograms base
